US20120244094A1, “TETRAPEPTIDES FOR BRIGHTENING THE SKIN” (EVONIK GOLDSCHMIDT GMBH, priority 2009, published 2012)

Key:
age spots on the face = assay: Reduction of age spots on the face, half-side test, chromameter skin shade ITA°; assay type: in vivo, human; conditions: applied twice daily for six weeks, FIG. 4; for ΔΔITA after 6-week application of the test formulations (reduction of age spots): 40 women, PKEK 0.004%, sodium ascorbyl phosphate 1.5%
Method: In order to quantify such age spots, color measurements of the skin are carried out. For this purpose, chromameters are used. The chromameter measures the color values L*, a* and b*. These describe a three-dimensional color space, with the help of which every perceivable color can be described, cf. FIG. 2. The end points are black (L=0) and white (L=100). In order to be able to classify the skin shade, the parameters L* and b* are required. The skin shade ITA° is given in degrees and calculated using the following formula: ITA°=[arctan((L*−50)/b*)]*180/3.14159 By means of the following study, the aim is to investigate whether the tetrapeptide PKEK is able to visibly reduce age spots. The study was carried out as a half-side test. 40 women aged between 30 and 70 years were selected who had visible age spots on the face. They were each given 2 test formulations, one for the right half of the face and the other for the left half of the face. The test formulations had to be applied twice daily over a period of six weeks. [table] Prior to the start of the study and also after 6 weeks, the color of the skin directly on the age spot was measured as well as in the adjoining area. This was performed using a CR 400 chromameter from Minolta. The skin shade ITA° was calculated both for the age spot (ITA°A) and also the adjoining area (ITA°U) and the difference was calculated: ΔITA°=ITA°U−ITA°A The greater ΔITA°, the more visible the age spot.

[1] = test system: evenness of the skin appearance of dark-skinned women (Fitzpatrick type VI-V); assay: Improvement in the skin appearance in dark-skinned people, visual assessment of evenness by an expert; assay type: in vivo, human; conditions: 0.004% PKEK face cream twice daily, FIG. 5
Method: For the following study, dark-skinned women (Fitzpatrick type VI-V) were used. The Fitzpatrick scale serves to organize the different skin types:
In each case, 25 female subjects were given a face cream which comprised either the tetrapeptide PKEK or no active ingredient (vehicle). They had to apply this formulation twice daily over the entire face for a period of 12 weeks. Prior to the start of the study and also after 2, 4, 8 and 12 weeks, the evenness of the skin appearance was assessed visually by an expert.
A five-part scale was used for assessing the skin appearance:
5=no contrast, very even skin appearance 4=slight contrast, slightly irregular skin appearance 3=moderate contrast, irregular skin appearance 2=high contrast, highly irregular skin appearance 1=very high contrast, very highly irregular skin appearance

[2] = test system: melanin concentration in the skin of the forearm; assay: In vivo lightening (2-month study), melanin concentration measured with a Mexameter probe; parameters: species or system human; conditions: 0.005% PKEK formulation, 20 subjects, compared to vehicle, FIG. 1
Source text: 20 subjects wore a test formulation without peptide or with 0.005% PKEK over a period of 8 weeks on one forearm in each case. Prior to the start of the study, and also after 8 weeks, a Mexameter probe (Courage & Khazaka, Cologne) was used to measure the melanin concentration both on the inside and also on the outside of the forearm. The measurement of the melanin concentration in the skin is based on the principle of absorption/reflection. The Mexameter probe emits light of a specific wavelength which is in agreement with the absorption maxima of the melanin in the skin. The light reflected by the skin is measured and placed relative to the emitted amount of light. The resulting measurement values are given as index numbers. [table]

| Compound | ΔΔITA after 6-week application of the test formulations (reduction of age spots) (age spots on the face) | improvement in the evenness of the skin appearance (five-part visual scale) ([1]; after 12 weeks, vehicle shows no further improvement) | improvement in the evenness of the skin appearance compared with the vehicle ([1]; within the first 8 weeks, over the course of the time) | improvement in the evenness of the skin appearance (five-part visual scale) ([1]; within the first 8 weeks) | difference in the melanin values after 8 weeks compared to the starting value (decrease in skin brownness) ([2]; inside of the forearm) | difference in the melanin values after 8 weeks compared to the starting value (decrease in skin brownness) ([2]; outside of the forearm) | reduction of age spots, PKEK compared with sodium ascorbyl phosphate (age spots on the face; comparison of the single actives) |
| --- | --- | --- | --- | --- | --- | --- | --- |
| O=C1O[C@H]([C@@H](O)CO)C([O-])=C1OP(=O)([O-])[O-].[Na+].[Na+].[Na+] [sodium ascorbyl phosphate, reference compound] | visible reduction of the age spots |  |  |  |  |  |  |
| Pro Lys Glu Lys (PKEK) | visible reduction of the age spots | significantly improves the skin appearance yet further | increasingly greater over the course of the time than with the vehicle | visibly improved | significantly greater decrease in skin brownness | significantly greater decrease in skin brownness | greater reduction than sodium ascorbyl phosphate |
